# From US20240165116A1, “ROCK2 INHIBITOR FOR THE TREATMENT OF VIRAL INFECTION” (Graviton Bioscience B.V., priority 2021, published 2024)
# Entries after “also recorded” stand apart in the source; their conditions may differ.
# Experiments:
# [1] = tested on: SARS-CoV-2 (2019-nCoV/USA-WA1/2020 strain); test: Viral load in lung lysates of SARS-CoV-2 challenged human ACE2 transgenic mice; format: in vivo; details: 300 mg/kg daily via oral gavage in 0.5% CMC-Na; initial viral loads 100, 1000, 10,000 pfu; compared with vehicle and Remdesivir (25 mg/kg subcutaneously)
# Experimental: FIGS. 6A, 6B, and 6C. Efficacy: Viral Load in Lung Lysates. […] Shown are viral copies/mg of lungs for initial viral loads of 100 pfu SARS-CoV2 (FIG. 6A), 1000 pfu SARS-CoV2 (FIG. 6B), and 10,000 pfu SARS-CoV2 (FIG. 6C). Groups from left to right: Vehicle, Formula XII (300 mg/kg), Remdesivir (RDV). Inserts: Formula XII (300 mg/kg) (left), Remdesivir (RDV) (right).
# Human ACE2 transgenic mice from Jackson Laboratories (n=5 per group) were challenged at t=0 with SARS-CoV-2 at an initial viral load of 100 PFU, 1,000, or 10,000 pfu of 2019-nCoV/USA-WA1/2020 strain. This strain was isolated from an oropharyngeal swab from a patient with a respiratory illness who developed the clinical disease (COVID-19) in January 2020 in Washington, US (BEI Resources, NR-52281). […] The infected mice were dosed daily via oral gavage with (1) 0.5% sodium carboxymethyl cellulose (CMC-Na) (negative control), (2) 300 mg/kg Formula XII in 0.5% CMC-Na (test group), or (3) Remdesivir (RDV). RDV, an anti-viral reagent that acts as a nucleoside analog and inhibits the RNA-dependent RNA polymerase (RdRp) of coronaviruses including SARS-CoV-2, was used a positive control. […] The animals were monitored daily. […] The viral load in the lung was determined by qPCR detecting viral RNA in lung lysates.
# [2] = tested on: SARS-CoV-2 (2019-nCoV/USA-WA1/2020 strain); test: In vitro SARS-CoV-2 prevention model: viral RNA in supernatant by qPCR; format: cell-based; details: Severe acute respiratory syndrome coronavirus 2; Calu-3 cells treated 2 h at 37° C., challenged with 10^2 PFU SARS-CoV-2 for 6 h, qPCR of supernatant at 48 h; calculated from best-fit values; read-out: EC50 (SARS-CoV-2 in supernatant, classical dose-response curve)
# Experimental: FIG. 2. Efficacy: SARS-CoV-2 CPN in Supernatant. Immortalized human airway epithelial cells (Calu-3) were treated with the listed concentrations of the Formula XII compound for 2 h at 37° C. followed by challenge with SARS-CoV-2 for 6 h. After washing, the cells were maintained for 48 hours and viral infection was analyzed by qPCR of the supernatant. Each data point represents the mean of three replicates.
# FIG. 3. Efficacy: Classical Dose-Response Curve. This figure provides the dose-response curve for the experiment described in Example 1 and FIG. 2.
# A 50 mM stock solution of (6-(4-((4-(1H-pyrazol-4-yl)phenyl)amino)pyrimidin-2-yl)-1-methyl-1H-indol-2-yl)(3,3-difluoroazetidin-1-yl)methanone (Formula XII) in DMSO was diluted using PBS to Formula XII concentrations of 100 μM, 10 μM, 1 μM, 0.3 μM, 0.1 μM, and 0.03 μM. About 30,000 immortalized human airway epithelial cells (Calu-3) were grown to about 100,000 cells per well in a 96-well format. […]
# Viral infection was analyzed by qPCR (qRT-PCR). […] Viral or host RNA levels in the supernatant were determined using the TaqPath™ 1-Step RT-qPCR Master Mix (Thermo Fisher) on CFX Connect Real-Time System (Bio-Rad) instrument using the following primers: Fwd: 5′-[…]-3; Rev: 5′-[…]-3′).
# Datasets were analyzed and plotted in GraphPad Prism (version 9.0.2). […]
smiles,measurement,setting,value
"Cn1c(C(=O)N2CC(F)(F)C2)cc2ccc(-c3nccc(Nc4ccc(-c5cn[nH]c5)cc4)n3)cc21 [Formula XII, (6-(4-((4-(1H-pyrazol-4-yl)phenyl)amino)pyrimidin-2-yl)-1-methyl-1H-indol-2-yl)(3,3-difluoroazetidin-1-yl)methanone]","Viral load in the lung (viral copies/mg of lungs, qPCR of lung lysates)",[1],significantly reduced viral load as compared to both the negative as well as the positive control; also recorded: reduces the spread of SARS-CoV2 in the lungs of mice in vivo
same,EC50,[2],124 nM
